In patent US20260209301A1, “Galanin-2 Receptor Agonists” (LIFEARC, priority 2022, published 2026):

Experiments:
[1] = test system: mouse chemotherapy-induced model of neuropathic pain; assay: Oxaliplatin chemotherapy-induced neuropathic pain model, von Frey; assay type: in vivo; settings: 0.1, 1 and 3 mg/kg i.p.; 4 hours post dose (day 5 after Oxaliplatin)
Experimental: Oxaliplatin-induced hypersensitivity: A single dose of Oxaliplatin was injected intraperitoneally (i.p.) at 10 mg/kg at a volume of 10 ml/kg. Oxaliplatin was dissolved in 5% dextrose to 1 mg/ml before use. Animals were injected in the same order in which they were tested.
Static mechanical tactile allodynia: Static mechanical (tactile) allodynia was assessed by measurement of withdrawal threshold using calibrated (force; g) von-Frey monofilaments (Touch-Test Sensory Evaluator; Scientific Marketing Associates) applied to the plantar surface of the hind paw. Animals were placed in individual Perspex boxes on a raised metal mesh for 30-40 min before the test. A series of graduated von Frey hairs (0.07, 0.16, 0.4, 0.6 and 1 g) was applied in sequence with a protocol of 1 sec on 1 sec off repeated 10 times. […] The force applied to the hind-paw of the animal to induce 5 responses out of 10 trials was recorded as paw withdrawal threshold (PWT).
Baseline PWT was assessed on three consecutive days (Day-3, Day-2 and Day-1). […]
Mechanical allodynia was re-assessed on Day 3 and 4 post-administration of a single dose of Oxaliplatin to monitor the development of allodynia. […]
Mechanical allodynia was re-assessed on Day 5 (4 hours post dose) and thereafter determined on Days 6 and 7 after administration of Oxaliplatin (i.e. 24 hours and 48 hours post FC2-13 treatment). […]

[2] = test system: mouse CFA model of inflammatory pain; assay: CFA-induced inflammatory pain model, weight bearing; assay type: in vivo
Text: Intraplantar injection of Complete Freunds adjuvant (CFA) causes an inflammatory reaction which induces hypersensitivity and oedema and mimics some aspects of clinical inflammatory pain. These effects can be investigated using equipment to measure the […]. Naive mice distribute their body weight equally between the two hind paws. When the injected hind paw is inflamed and/or painful, the weight is re-distributed so that less weight is put on the affected paw (decrease in weight bearing on injured paw). Weight bearing through each hind limb is measured using an incapacitance tester (Linton Instruments, UK).
Environmental conditions: Animals were housed in standard caging and laboratory conditions in groups of 2-5, with free access to food (5CR4, Purina) and water (except during placement in the incapacitance box) on a 12/12 light/dark cycle. […] Weight bearing: Mice were placed in the incapacitance tester with the hind paws on separate sensors and the average force exerted by both hind limbs was recorded over 2 seconds. […] Prior to test compound treatment, weight bearing readings were taken to assess baseline hypersensitivity 23 hours post-CFA. […] Weight bearing was then assessed at 4, 24, 48 and 72 hours post-test compound treatment.
Weight bearing (g) readings were taken for both right and left hind paws and the difference calculated. […]

rat GalR2 = biological target: T1, rat GalR2 (Rattus norvegicus, UniProt O08726); assay: Calcium assay at orthologue receptor; assay type: cell-based; settings: Table 8; Calcium assays; mean +/− standard deviation
T1 sequence (O08726 1-372): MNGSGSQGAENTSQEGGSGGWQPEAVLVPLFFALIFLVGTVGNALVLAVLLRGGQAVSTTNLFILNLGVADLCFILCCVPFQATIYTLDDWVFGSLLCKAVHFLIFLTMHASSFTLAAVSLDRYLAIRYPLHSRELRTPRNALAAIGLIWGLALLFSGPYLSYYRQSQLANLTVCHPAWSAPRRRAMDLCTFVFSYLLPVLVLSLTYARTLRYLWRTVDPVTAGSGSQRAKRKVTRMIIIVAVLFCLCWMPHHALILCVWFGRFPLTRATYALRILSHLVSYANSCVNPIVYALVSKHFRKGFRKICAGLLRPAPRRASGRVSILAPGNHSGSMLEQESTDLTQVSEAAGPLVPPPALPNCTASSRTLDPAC
Text: These species were chosen as they represent potential downstream in vivo models to be used. […] Calcium imaging was used to define receptor activity.

## Gal2-13FC: galanin 2-13, AEAAAKEAAAKA linker, human IgG1 FC; SEQ ID NO: 7
[1]
  reversal of Oxaliplatin-induced mechanical hyperalgesia: efficacious
[2]
  MED, reversal of hyperalgesia induced by CFA: ≤ 1 mg/kg i.p.
  duration of reversal of hyperalgesia induced by CFA: ≥ 72 h
Rat GalR2
  Rat GalR2 activity: 6.5 +/− 0.1
